# Target: GCN2 (Homo sapiens, UniProt Q9P2K8)
# Test: GCN2 enzyme assay (TR-FRET Lanthascreen, GFP-eIF2alpha substrate)
# Assay type: biochemical
# Excerpt: GCN2: Assay Principle & Conditions
# This assay can quantificate the activity of the serin kinase GCN2 (general control non-derepressible-2).
# This kinase is involved in the stress metabolism of cells. It is activated upon starvation (amino acid depletion). Its natural substrate is eIF2a (eukaryotic initiation factor 2 alpha subunit), a translation factor, which gets activated (phosphorylated) by GCN2 in case of an amino acid bottleneck in the cells. This in turn leads to a halt of the protein synthesis. Inhibition of GCN2 results in stopping this mechanism: The cell can not stop protein production upon “starvation” stress.
# The assay is run in two steps: the enzymatic reaction and the detection step. In the first step GCN2 is incubated with 10 μM ATP and 80 nM of the GFP-labelled substrate eIF2alpha at room temperature.
# The enzymatic reaction is stopped by addition of EDTA. The amount of phosphorylated eIF2alpha is determined by TR-FRET (Lanthascreen): A complex is formed consisting of antibody and GFP labelled phospho-eIF2a, which allows a FRET upon exitation at 340 nm.
# Final Concentrations in the Enzymatic Reaction • Hepes, pH 7.0 50 mM • MgCl2 10 mM • MnCl2 5 mM • BSA 0.1% • DMSO 1% • ATP 10 uM • DTT 2 mM • GFP-eIF2a 80 nM (substrate) • GCN2 30 nM (enzyme)
# Sequence of GCN2 (Q9P2K8 whole entry): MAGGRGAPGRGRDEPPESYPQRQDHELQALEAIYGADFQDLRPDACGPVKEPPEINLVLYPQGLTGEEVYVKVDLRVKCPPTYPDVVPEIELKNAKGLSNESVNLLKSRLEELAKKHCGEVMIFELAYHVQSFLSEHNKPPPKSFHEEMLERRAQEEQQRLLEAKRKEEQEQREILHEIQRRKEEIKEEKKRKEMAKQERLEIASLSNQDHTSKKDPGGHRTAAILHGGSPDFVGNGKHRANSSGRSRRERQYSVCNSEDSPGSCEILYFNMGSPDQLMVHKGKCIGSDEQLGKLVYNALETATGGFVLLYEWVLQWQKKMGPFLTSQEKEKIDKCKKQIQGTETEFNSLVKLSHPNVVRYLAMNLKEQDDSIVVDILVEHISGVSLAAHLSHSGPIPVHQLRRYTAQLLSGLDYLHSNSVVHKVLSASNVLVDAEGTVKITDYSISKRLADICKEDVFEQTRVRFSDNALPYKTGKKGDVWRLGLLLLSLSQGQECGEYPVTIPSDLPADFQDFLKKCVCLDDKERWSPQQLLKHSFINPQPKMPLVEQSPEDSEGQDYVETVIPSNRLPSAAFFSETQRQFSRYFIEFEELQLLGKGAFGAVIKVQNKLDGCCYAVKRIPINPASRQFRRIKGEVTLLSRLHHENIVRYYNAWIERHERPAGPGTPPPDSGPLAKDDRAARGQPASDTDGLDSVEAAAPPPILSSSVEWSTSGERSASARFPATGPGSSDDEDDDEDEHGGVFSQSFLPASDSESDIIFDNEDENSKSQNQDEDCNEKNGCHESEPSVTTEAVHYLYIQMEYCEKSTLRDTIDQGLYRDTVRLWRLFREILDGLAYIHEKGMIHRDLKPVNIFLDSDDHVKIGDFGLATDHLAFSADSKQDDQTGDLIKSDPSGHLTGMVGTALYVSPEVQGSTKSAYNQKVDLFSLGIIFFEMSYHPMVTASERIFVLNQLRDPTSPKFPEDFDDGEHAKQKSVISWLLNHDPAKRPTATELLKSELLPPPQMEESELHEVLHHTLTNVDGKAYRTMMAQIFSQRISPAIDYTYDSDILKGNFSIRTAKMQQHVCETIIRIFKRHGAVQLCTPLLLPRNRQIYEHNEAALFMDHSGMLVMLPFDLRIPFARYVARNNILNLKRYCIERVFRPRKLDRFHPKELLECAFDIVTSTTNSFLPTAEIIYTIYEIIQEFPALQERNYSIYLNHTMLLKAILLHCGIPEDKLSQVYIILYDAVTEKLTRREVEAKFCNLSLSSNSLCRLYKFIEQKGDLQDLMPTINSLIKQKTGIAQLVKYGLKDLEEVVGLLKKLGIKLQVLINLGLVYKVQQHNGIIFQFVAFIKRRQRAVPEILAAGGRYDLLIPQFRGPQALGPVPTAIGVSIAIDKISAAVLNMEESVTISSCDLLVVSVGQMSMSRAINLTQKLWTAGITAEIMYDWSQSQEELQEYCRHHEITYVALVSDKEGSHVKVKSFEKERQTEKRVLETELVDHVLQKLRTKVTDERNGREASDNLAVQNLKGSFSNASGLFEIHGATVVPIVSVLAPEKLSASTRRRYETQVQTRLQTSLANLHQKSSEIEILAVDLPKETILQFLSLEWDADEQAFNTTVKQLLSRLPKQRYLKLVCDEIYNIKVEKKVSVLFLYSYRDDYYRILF
row,Compound,IC50 [µM]
1,Fc1ccc(Nc2nc3cnc(Cl)cn3n2)cc1 [Compound A21],1 to 5
2,"Cn1cc(-c2cncc3nc(Nc4ccc5c(c4)CC(=O)N5)nn23)cn1 [Compound A41, 5-[5-(1-methyl-1H-pyrazol-4-yl)-[1,2,4]triazolo[1,5-a]pyrazin-2-ylamino]-1,3-dihydro-indol-2-one]",< 1
3,"Cc1cc(Nc2nc3cncc(-c4ccc(C(C)(C)C#N)cc4)n3n2)ccc1N1CCN(C)CC1 [Compound A40, 2-methyl-2-(4-{2-[3-methyl-4-(4-methyl-piperazin-1-yl)-phenylamino]-[1,2,4]triazolo[1,5-a]pyrazin-5-yl}-phenyl)-propionitrile]",< 1
4,"CNS(=O)(=O)c1cccc(-c2cncc3nc(Nc4ccc(N5CCN(C)CC5)c(OC)c4)nn23)c1 [Compound A96, 3-{2-[3-methoxy-4-(4-methyl-piperazin-1-yl)-phenylamino]-[1,2,4]triazolo[1,5-a]pyrazin-5-yl}-N-methyl-benzenesulfonamide]",1 to 5
5,"Cc1cc(Nc2nc3cncc(-c4cnn(C)c4)n3n2)ccc1N1CCN(C)CC1 [Compound A42, 5-(1-methyl-1H-pyrazol-4-yl)-N-(3-methyl-4-(4-methylpiperazin-1-yl)phenyl)-[1,2,4]triazolo[1,5-a]pyrazin-2-amine]",< 1
6,"Cn1ncc2cc(-c3cncc4nc(Nc5cccc(S(N)(=O)=O)c5)nn34)ccc21 [Compound A39, 3-[5-(1-methyl-1H-indazol-5-yl)-[1,2,4]triazolo[1,5-a]pyrazin-2-ylamino]-benzenesulfonamide]",< 1
7,"Cc1cc(Nc2nc3cncc(-c4cccc(NS(C)(=O)=O)c4)n3n2)ccc1N1CCN(C)CC1 [Compound A43, N-(3-(2-((3-methyl-4-(4-methylpiperazin-1-yl)phenyl)amino)-[1,2,4]triazolo[1,5-a]pyrazin-5-yl)phenyl)methanesulfonamide]",< 1
8,"Cc1cc(Nc2nc3cncc(-c4cccc(C(N)=O)c4)n3n2)ccc1N1CCN(C)CC1 [Compound A54, 3-{2-[3-methyl-4-(4-methyl-piperazin-1-yl)-phenylamino]-[1,2,4]triazolo[1,5-a]pyrazin-5-yl}-benzamide]",1 to 5
9,COc1cccc(Nc2nc3cnc(C#N)cn3n2)c1 [Compound A23],1 to 5
10,Fc1cccc(Nc2nc3cnc(Cl)cn3n2)c1 [Compound A19],1 to 5
11,"c1cnc2ccc(-c3cncc4nc(Nc5ccc(N6CCOCC6)cc5)nn34)cc2c1 [Compound A33, (4-morpholin-4-yl-phenyl)-(5-quinolin-6-yl-[1,2,4]triazolo[1,5-a]pyrazin-2-yl)-amine]",1 to 5
12,"Cn1ncc2cc(-c3cncc4nc(Nc5ccc6c(c5)CC(=O)N6)nn34)ccc21 [Compound A38, 5-[5-(1-methyl-1H-indazol-5-yl)-[1,2,4]triazolo[1,5-a]pyrazin-2-ylamino]-1,3-dihydro-indol-2-one]",< 1
13,"Cn1cc(-c2cncc3nc(Nc4cccnc4)nn23)cn1 [Compound A12, [5-(1-methyl-1H-pyrazol-4-yl)-[1,2,4]triazolo[1,5-a]pyrazin-2-yl]-pyridin-3-yl-amine]",< 1
14,"Fc1ccc(Nc2cn3nc(Nc4cccnc4)nc3cn2)cc1 [Compound A29, N6-(4-fluoro-phenyl)-N2-pyridin-3-yl-[1,2,4]triazolo[1,5-a]pyrazine-2,6-diamine]",1 to 5
15,"CN1CCN(c2ccc(Nc3nc4cncc(-c5cnn(C)c5)n4n3)cn2)CC1 [Compound A90, [6-(4-methyl-piperazin-1-yl)-pyridin-3-yl]-[5-(1-methyl-1H-pyrazol-4-yl)-[1,2,4]triazolo[1,5-a]pyrazin-2-yl]-amine]",< 1
